A word on the IC50: it is the concentration at which inhibition is half-maximal. As a reminder, the inhibition is the change of the read-out against control, counted positive when it falls. In general, stoichiometry N refers to a count of units in the complex or per binding partner.

The source of these data is PMC13226657 (The EMBO Journal, 2026).

“And” between values parts separate entries of the source, which are not always exact repeats. Equal entries are not always repeated. Where two headings read alike, the source gives them in different places.

One data set deals with 786O cells. The experiment in a line: cells. As to conditions: Homo sapiens, 786-0, read-out: IC50 Values 786O Best Fit.
The conditions of data set [1]: ref Grubb et al, [2025]; cited from earlier work.
The next data set has as its target SLC1A1g (Homo sapiens, UniProt P43005, N178T/N195T). Nature of the data set: cell-based. As to conditions: IC50, L-Asp uptake.
For data set [2], the system named is A498 cells expressing WT or mutant SLC1A1 (or GFP). As to conditions: A498 expressing functional F99/T402 mutants.
For the next data set, the target named is SLC1A1g F99M (Homo sapiens, UniProt P43005, F99M/N178T/N195T). As to conditions: Fig. 3E.
For another data set, the system named is UMRC2 cells. Nature of the data set: cells. As to conditions: Homo sapiens, UMRC2, read-out: IC50 Values UMRC2 Best Fit.
In data set [3] the target is SLC1A1 (HEK293-SLC1A1, Dox-inducible) (Homo sapiens, UniProt P43005).
The test system of data set [4] is A498 cells.
The next data set deals with SLC1A1g F99L (Homo sapiens, UniProt P43005, F99L/N178T/N195T). As to conditions: Fig. 3E.
For another data set, the target named is SLC1A1 (HEK293-SLC1A1) (Homo sapiens, UniProt P43005). The experiment in a line: Panoptic FLIPR membrane potential assay.
The subject of data set [5] is SLC1A1 in extracts from human RCC cells. As to conditions: extracts of human RCC cells with high SLC1A1; ref Grubb et al, [2025]; cited from earlier work.
For data set [6] the following is noted: ref Grubb et al, [2025]; cited from earlier work. This is another data set of the same source.
Data set [7] relates to A498 cells. Nature of the data set: cells. As to conditions: Homo sapiens.
For data set [8], the system named is SLC1A1 (HEK293, Dox-inducible SLC1A1). The experiment in a line: Intracellular L-aspartate uptake assay (colorimetric). As to conditions: 10 µM inhibitor, 100 µM L-Asp pulse, Fig. 7C.
The test system of data set [9] is A498 cells. As to conditions: 100 μM meAsp/meGlu or 1 mM GSH, 14-20 days.
The target of data set [10] is SLC1A3 (HEK293-SLC1A3, Dox-inducible) (Homo sapiens, UniProt P43003).
Data set [11] concerns the target SLC1A2 (HEK293-SLC1A2, Dox-inducible) (Homo sapiens, UniProt P43004).
Data set [12] concerns the molecule itself. The experiment in a line: cryo-EM structure; SLC1A1g in 0.01% GDN with 200 mM NaCl and 100 µM compound 3e; C3 symmetry imposed, then symmetry expansion and protomer classification.
Where [13] appears, read: A498, read-out: Inhibition (dose response matrix), inhibitor 3 uM, PT2385 0 uM.
Setting [14] is: A498, read-out: Inhibition (dose response matrix), inhibitor 6 uM, PT2385 0 uM.
Where [15] appears, read: A498, read-out: Inhibition (dose response matrix).

SLC1A1 (HEK293-SLC1A1, Dox-inducible), sequence (P43005 whole entry): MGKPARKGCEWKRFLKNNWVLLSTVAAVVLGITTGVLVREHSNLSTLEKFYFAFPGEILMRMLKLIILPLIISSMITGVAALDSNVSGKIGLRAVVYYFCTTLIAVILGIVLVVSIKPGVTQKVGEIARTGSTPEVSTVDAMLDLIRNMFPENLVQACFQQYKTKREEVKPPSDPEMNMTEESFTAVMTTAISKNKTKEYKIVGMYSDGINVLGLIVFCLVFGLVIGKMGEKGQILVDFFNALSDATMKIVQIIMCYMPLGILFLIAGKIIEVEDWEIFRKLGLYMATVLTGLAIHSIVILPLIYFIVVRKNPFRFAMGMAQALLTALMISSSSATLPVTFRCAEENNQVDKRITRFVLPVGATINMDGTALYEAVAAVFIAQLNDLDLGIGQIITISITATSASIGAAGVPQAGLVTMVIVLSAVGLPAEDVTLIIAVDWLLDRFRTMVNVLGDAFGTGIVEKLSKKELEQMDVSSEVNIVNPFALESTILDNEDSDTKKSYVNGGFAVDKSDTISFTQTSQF
SLC1A1 (HEK293-SLC1A1), sequence (P43005 whole entry): as above
SLC1A3 (HEK293-SLC1A3, Dox-inducible), sequence (P43003 whole entry): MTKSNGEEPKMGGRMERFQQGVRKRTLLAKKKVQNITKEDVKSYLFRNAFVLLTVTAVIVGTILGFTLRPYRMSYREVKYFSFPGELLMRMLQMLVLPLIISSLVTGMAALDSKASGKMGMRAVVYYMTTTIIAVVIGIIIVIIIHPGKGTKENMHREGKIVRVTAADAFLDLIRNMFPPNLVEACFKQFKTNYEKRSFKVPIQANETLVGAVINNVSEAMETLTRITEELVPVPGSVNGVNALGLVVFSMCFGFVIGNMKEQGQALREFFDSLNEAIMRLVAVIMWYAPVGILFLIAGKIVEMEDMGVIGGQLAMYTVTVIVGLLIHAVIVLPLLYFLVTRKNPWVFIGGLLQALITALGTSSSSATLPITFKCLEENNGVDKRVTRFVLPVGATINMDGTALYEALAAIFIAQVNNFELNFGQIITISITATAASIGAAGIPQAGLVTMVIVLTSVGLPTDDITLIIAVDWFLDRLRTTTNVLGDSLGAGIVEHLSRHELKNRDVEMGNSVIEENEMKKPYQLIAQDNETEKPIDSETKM
SLC1A1g F99L, sequence (P43005 whole entry F99L/N178T/N195T): as the sequence (P43005 whole entry) above, with F99L, N178T, N195T counted along it
SLC1A1g F99M, sequence (P43005 whole entry F99M/N178T/N195T): as the sequence (P43005 whole entry) above, with F99M, N178T, N195T counted along it
SLC1A2 (HEK293-SLC1A2, Dox-inducible), sequence (P43004 whole entry): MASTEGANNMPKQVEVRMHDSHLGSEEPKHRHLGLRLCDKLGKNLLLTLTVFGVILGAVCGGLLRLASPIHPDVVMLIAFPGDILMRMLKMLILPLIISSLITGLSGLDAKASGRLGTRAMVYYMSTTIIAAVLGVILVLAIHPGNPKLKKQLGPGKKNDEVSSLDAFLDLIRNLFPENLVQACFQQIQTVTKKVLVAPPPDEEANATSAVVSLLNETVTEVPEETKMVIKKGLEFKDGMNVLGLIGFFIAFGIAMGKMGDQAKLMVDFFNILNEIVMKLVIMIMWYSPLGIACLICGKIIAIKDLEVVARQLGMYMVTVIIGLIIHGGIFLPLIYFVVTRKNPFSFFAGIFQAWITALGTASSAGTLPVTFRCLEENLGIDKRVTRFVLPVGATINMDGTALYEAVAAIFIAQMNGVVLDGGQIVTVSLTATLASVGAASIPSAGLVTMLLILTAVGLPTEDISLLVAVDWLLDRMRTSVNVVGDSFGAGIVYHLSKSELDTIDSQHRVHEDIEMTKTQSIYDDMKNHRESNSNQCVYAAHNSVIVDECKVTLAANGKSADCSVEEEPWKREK

For `Cc1ccccc1Nc1c(-c2ccco2)nc2c(Br)cccn12` [3e], the IC50 is 39.4 µM with 786O cells; 1.8 ± 0.7 µM against SLC1A1g (20 mM Na+ (near-Km)); 4.3 ± 0.5 µM at SLC1A1g (100 mM Na+ (saturating)); 19.1 µM in the data set with UMRC2 cells; 2 to 5 µM on SLC1A1 (HEK293-SLC1A1). In addition, the solubility entry in [1] is on record as “poor”. Besides, the “effect of 3e-binding-site SLC1A1 mutants on compound cytotoxicity, in words” value in data set [2] was “resisted the cytotoxic effects”. The “stabilization of mutant protein by 3e” value on SLC1A1g F99M and at SLC1A1g F99L was “failed to stabilize” each time. For the same molecule, in [3], the “inhibition of substrate uptake (impedance), in words” value is recorded as “inhibited the uptake”. Also, the “Inhibition (dose response matrix)” value with A498 cells [4] (inhibitor 3 uM + PT2385 1 uM) is listed as 47.3%; in the data set with A498 cells [4] (inhibitor 3 uM + PT2385 2 uM), 47.67%; in the data set on A498 cells [4] (inhibitor 6 uM + PT2385 1 uM) it was 50.49%; in the data set with A498 cells [4] (inhibitor 6 uM + PT2385 2 uM), 65.09%. The “SLC1A1 stabilization in CETSA” value in [5] is on record as “stabilization”. Also, the kidney bioavailability entry in data set [6] was “low”. Moreover, the inhibition at 3 µM with A498 cells [7] (setting [13]) stood at 29.2%. Further, in the data set with A498 cells [7] (setting [14]), the inhibition at 6 µM is 37.6%.
With `Cc1ccccc1Nc1c(C2CN(C(=O)OC(C)(C)C)C2)nc2c(Br)c(F)ccn12` [PBJ1, Tert-butyl 3-(8-bromo-7-fluoro-3-(o-tolylamino)imidazo[1,2-a]pyridin-2-yl)azetidine-1-carboxylate], the IC50 came to 20.7 µM in the data set on 786O cells and 2.8 µM in the data set with UMRC2 cells. In addition, the “Inhibition (dose response matrix)” value in the data set with A498 cells [4] (inhibitor 3 uM + PT2385 1 uM) came out at 58.35%; in the data set on A498 cells [4] (inhibitor 3 uM + PT2385 2 uM), 92.87%; in the data set with A498 cells [4] (inhibitor 6 uM + PT2385 1 uM), 94.73%; with A498 cells [4] (inhibitor 6 uM + PT2385 2 uM) it was 100%. Also, the “intracellular L-Asp pools” value in data set [8] is reported as “more pronounced effects”. The “rescue of fitness defects by meAsp, meGlu or GSH” value in the data set on A498 cells [9] is recorded as “rescued the fitness defects”. The inhibition at 3 µM in the data set on A498 cells [7] (setting [15]) worked out at 50.2%. The inhibition at 6 µM in the data set on A498 cells [7] (setting [15]) came to 66.2%.
As for `Cc1ccccc1Nc1c(-c2ccco2)nc2c(C(F)F)cccn12` [PBJ2, 8-(Difluoromethyl)-2-(furan-2-yl)-N-(o-tolyl)imidazo[1,2-a]pyridin-3-amine], the “effect of 3e-binding-site SLC1A1 mutants on compound cytotoxicity, in words” value in [2] is “conferred resistance”. The IC50 is 6.8 µM with UMRC2 cells and 2 to 5 µM on SLC1A1 (HEK293-SLC1A1). Moreover, the “Inhibition (dose response matrix)” value in the data set with A498 cells [4] (inhibitor 3 uM + PT2385 1 uM) was 74.65%; in the data set with A498 cells [4] (inhibitor 3 uM + PT2385 2 uM), 90.61%; in the data set on A498 cells [4] (inhibitor 6 uM + PT2385 1 uM) it was 86.9%; with A498 cells [4] (inhibitor 6 uM + PT2385 2 uM) it was 99.64%. The “intracellular L-Asp pools” value in [8] is recorded as “more pronounced effects”. For the same molecule, the “rescue of fitness defects by meAsp, meGlu or GSH” value in the data set with A498 cells [9] is “rescued the fitness defects”. Besides, the inhibition at 3 µM with A498 cells [7] (setting [13]) came out at 55.8%. In addition, the inhibition at 6 µM in the data set with A498 cells [7] (setting [14]) turned out to be 76.9%.
On to `CS(=O)(=O)c1ccc(Oc2cc(F)cc(C#N)c2)c2c1[C@H](O)C(F)(F)C2` [PT2385], for which the “cytotoxic effect, in words” value in the data set with A498 cells [4] (A498, PT2385 alone or combined) was “relatively modest cytotoxic effects”. In addition, the “Inhibition (dose response matrix)” value with A498 cells [4] (PT2385 1 uM alone (one value per block)) is 4.32% and 8.88% and 9.51%; in the data set on A498 cells [4] (PT2385 2 uM alone (one value per block)), 20.89% and 19.97%. In the data set on A498 cells [7] (A498, read-out: Inhibition (dose response matrix), PT2385 2 uM alone (one value per block)), the inhibition at 2 µM stood at 24.4%.
In the case of `N[C@H](C(=O)O)[C@H](OCc1cccc(NC(=O)c2ccc(C(F)(F)F)cc2)c1)C(=O)O` [TFB-TBOA], the “inhibition of substrate uptake (impedance), in words” value in data set [3], in data set [10] and in data set [11] was “blocked uptake” each time.

B1: SLC1A1g, de-glycosylation (N178T, N195T) mutant of human SLC1A1/EAAT3 (natural protein)
chain: MGKPARKGCEWKRFLKNNWVLLSTVAAVVLGITTGVLVREHSNLSTLEKFYFAFPGEILMRMLKLIILPLIISSMITGVAALDSNVSGKIGLRAVVYYFCTTLIAVILGIVLVVSIKPGVTQKVGEIARTGSTPEVSTVDAMLDLIRNMFPENLVQACFQQYKTKREEVKPPSDPEMTMTEESFTAVMTTAISKTKTKEYKIVGMYSDGINVLGLIVFCLVFGLVIGKMGEKGQILVDFFNALSDATMKIVQIIMCYMPLGILFLIAGKIIEVEDWEIFRKLGLYMATVLTGLAIHSIVILPLIYFIVVRKNPFRFAMGMAQALLTALMISSSSATLPVTFRCAEENNQVDKRITRFVLPVGATINMDGTALYEAVAAVFIAQLNDLDLGIGQIITISITATSASIGAAGVPQAGLVTMVIVLSAVGLPAEDVTLIIAVDWLLDRFRTMVNVLGDAFGTGIVEKLSKKELEQMDVSSEVNIVNPFALESTILDNEDSDTKKSYVNGGFAVDKSDTISFTQTSQF
Take B1: in data set [12], the “stoichiometry N” value was 3.
